Measurements: paper PMC8617031, “Development of a BCL-xL and BCL-2 dual degrader with improved anti-leukemic activity,” (Nature Communications, 2021)
“And” between values parts separate entries of the source, which are not always exact repeats. Equal entries are not always repeated.

Columns and labels:
Hela cells = assay: Viability (MTS) of Hela cells; format: cell-based, human; conditions: for cell viability normalised to control wells (single replicate): in % (unit assumed)
Method: Suspension cells were treated 30 min after seeding, whereas adherent cells were allowed to adhere overnight and were then treated. Compound treatments were prepared in complete cell culture medium and 100 µl of 2× treatment-containing medium were added to each well. Complete cell culture medium without treatment was added in control wells, and wells containing medium without cells served as background. The outer wells of the 96-well plate were not used for treatment and were filled with 250 µl of PBS to reduce evaporation of medium from inner wells. Each compound and/or combination was tested at nine different concentrations with three replicates. The cell viability was measured after 72 h by tetrazolium-based MTS assay. MTS reagent (2 mg ml^–1 stock; cat. no. G1111, Promega) was freshly supplemented with phenazine methosulfate (PMS, 0.92 mg ml^–1 stock, cat. no. P9625, Sigma-Aldrich) in 20:1 ratio, and 20 µl of this mixture was added to each control and treatment well. The cells were incubated for 4 h at 37 °C and 5% CO2, and then the absorbance was recorded at 490 nm using Biotek’s Synergy Neo2 multimode plate reader (Biotek). The average absorbance value of background wells was subtracted from absorbance value of each control and treatment well, and percent cell viability ((At/A0) × 100)) was determined in each treatment well, where At is the absorbance value of the treatment well and A0 is the average absorbance value of control wells after background subtraction. The data were expressed as average percentage cell viability and fitted in non-linear regression curves using GraphPad Prism 7 (GraphPad Software, La Jolla, CA, USA).

His-tagged BCL-xL = target: T1, His-tagged BCL-xL (Homo sapiens, UniProt Q07817); assay: AlphaScreen competitive binary binding, BCL-xL (biotin-BAD peptide)
T1 construct: purchased Sigma-Aldrich SRP0187
Method: (§1) The reagents were diluted in a buffer containing 250 mM HEPES pH 7.5, 1 M NaCl, 1% BSA, and 0.05% Tween-80. His-tagged BCL-xL (0.5 nM, Cat. No. SRP0187, Sigma-Aldrich) or BCL-2 (1 nM, Cat. No. SRP0186, Sigma-Aldrich) were incubated with serial diluted 753a or 753b and 2 nM biotin-tagged BAD (biotin-[…] amino-terminal, AnaSpec, for BCL-xL) or 10 nM BIM peptides (biotin-[…] N-terminal, AnaSpec, for BCL-2) to a final volume of 40 µl in a 96-well PCR plate. […] After incubation for 2 h, 5 µl 6× His-acceptor beads (Cat. No. AL128M, PerkinElmer) were added to each well at 20 µg/ml final concentration and incubated for 1 h. Then 5 µl streptavidin-donor beads were added (Cat. No. 6760002, PerkinElmer) to each well at 20 µg/ml final concentration and incubated for 45 min. At the end of the incubation period, 17 µl of each sample was transferred in adjacent wells of 384-well proxy plate (Cat. No. 6008280, PerkinElmer). The plate was scanned using the Alpha program on Biotek’s Synergy Neo2 multimode plate reader. The inhibition constant (Ki) was calculated using the non-linear regression, one site, competitive binding, Fit Ki function on GraphPad Prism 9 software, based on experimentally determined dissociation constant (Kd) for each protein–peptide pair.

His-tagged BCL-2 = target: T2, His-tagged BCL-2 (Homo sapiens, UniProt P10415); assay: AlphaScreen competitive binary binding, BCL-2 (biotin-BIM peptide)
T2 construct: purchased Sigma-Aldrich SRP0186
Method: as §1

Kasumi-1 cells = assay: Viability (MTS) of Kasumi-1 AML cells; format: cell-based, human; conditions: Kasumi, 24h, Fig. 7c
[1] = MTS absorbance 490, Conc 0.00137174 uM
[2] = MTS absorbance 490, Conc 0.00411523 uM
[3] = MTS absorbance 490, Conc 0.037037 uM
[4] = MTS absorbance 490, Conc 0.111111 uM
[5] = MTS absorbance 490, Conc 0.333333 uM
[6] = AlphaScreen, Supplementary Fig. 6

T2 sequence (P10415 whole entry): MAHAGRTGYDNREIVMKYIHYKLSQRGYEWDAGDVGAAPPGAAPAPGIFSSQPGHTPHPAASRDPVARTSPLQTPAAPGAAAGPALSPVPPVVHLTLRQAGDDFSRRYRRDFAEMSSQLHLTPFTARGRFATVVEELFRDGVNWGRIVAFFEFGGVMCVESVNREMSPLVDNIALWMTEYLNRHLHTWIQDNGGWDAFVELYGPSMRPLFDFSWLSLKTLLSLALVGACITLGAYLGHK
T1 sequence (Q07817 whole entry): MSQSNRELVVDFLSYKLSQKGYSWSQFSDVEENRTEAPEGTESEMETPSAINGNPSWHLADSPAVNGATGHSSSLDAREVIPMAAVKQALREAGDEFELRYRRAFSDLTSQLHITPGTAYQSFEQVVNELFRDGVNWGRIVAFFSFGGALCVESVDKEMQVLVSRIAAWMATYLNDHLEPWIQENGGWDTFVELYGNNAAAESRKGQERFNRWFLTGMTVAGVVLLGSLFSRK

With `Cc1ncsc1-c1ccc([C@H](C)NC(=O)[C@@H]2C[C@@H](O)CN2C(=O)[C@@H](NC(=O)CCCCCCC(=O)N2CCN(C[C@]3(C)CCC(c4ccc(Cl)cc4)=C(CN4CCN(c5ccc(C(=O)NS(=O)(=O)c6ccc(N[C@H](CCN7CCOCC7)CSc7ccccc7)c(S(=O)(=O)C(F)(F)F)c6)cc5)CC4)C3)CC2)C(C)(C)C)cc1` [753b] the “cell viability normalised to control wells (mean of three replicates)” value (Hela cells; [1]) was 101.835, the “cell viability normalised to control wells (single replicate)” value (Hela cells; [1]) was 103.801 and 94.6965 and 107.009 and the “cell viability normalised to control wells (mean of three replicates)” value (Hela cells; [2]) was 93.0491. For the same compound, the “cell viability normalised to control wells (single replicate)” value (Hela cells; [2]) was 98.1647 and 87.1532 and 93.8295, the “cell viability normalised to control wells (mean of three replicates)” value (Hela cells; [3]) was 95.159 and the “cell viability normalised to control wells (single replicate)” value (Hela cells; [3]) was 94.6965 and 88.7139 and 102.066. For the same compound, the “cell viability normalised to control wells (mean of three replicates)” value (Hela cells; [4]) was 93.078, the “cell viability normalised to control wells (single replicate)” value (Hela cells; [4]) was 90.1012 and 81.2572 and 107.876 and the “cell viability normalised to control wells (mean of three replicates)” value (Hela cells; [5]) was 93.8295. The “cell viability normalised to control wells (single replicate)” value (Hela cells; [5]) was 79.8699 and 97.9913 and 103.627, the “cell viability normalised to control wells (mean of three replicates)” value (Hela cells; MTS absorbance 490, Conc 1 uM) was 89.5809 and the “cell viability normalised to control wells (single replicate)” value (Hela cells; MTS absorbance 490, Conc 1 uM) was 76.4884 and 93.6561 and 98.5983. The “cell viability normalised to control wells (mean of three replicates)” value (Hela cells; MTS absorbance 490, Conc 3 uM) was 87.6734, the “cell viability normalised to control wells (single replicate)” value (Hela cells; MTS absorbance 490, Conc 3 uM) was 75.7081 and 83.5116 and 103.801 and the “binary binding affinity to BCL-xL (in words)” value (His-tagged BCL-xL; [6]) was “much weaker than that of the warhead ABT263”. The IC50 (His-tagged BCL-xL; BCL-xL Rep-1) was 25.6 nM, the Ki (His-tagged BCL-xL; BCL-xL Rep-1) was 1.15 nM and the “Alpha signal (raw counts)” value (His-tagged BCL-xL; BCL-xL Rep-1, plate row B, 5 uM) was 34683 and 41080. For the same compound, the “Alpha signal (raw counts)” value (His-tagged BCL-xL; BCL-xL Rep-1, plate row D, 0.3125 uM) was 104729 and 120739, the “Alpha signal (raw counts)” value (His-tagged BCL-xL; BCL-xL Rep-1, plate row E, 0.078125 uM) was 342247 and 341354 and the “Alpha signal (raw counts)” value (His-tagged BCL-xL; BCL-xL Rep-1, plate row F, 0.0195312 uM) was 676907 and 757834. For the same compound, the “Alpha signal (raw counts)” value (His-tagged BCL-xL; BCL-xL Rep-1, plate row G, 0.00488281 uM) was 979745 and 1069221, the “Alpha signal (raw counts)” value (His-tagged BCL-xL; BCL-xL Rep-1, plate row H, 0.0012207 uM) was 1220627 and 1147140 and the “Alpha signal (raw counts)” value (His-tagged BCL-xL; BCL-xL Rep-1, plate row I, 0.000305176 uM) was 1208908 and 1239363. The “Alpha signal (raw counts)” value (His-tagged BCL-xL; BCL-xL Rep-1, plate row J, 7.62939e-5 uM) was 1272719 and 1257225, the “Alpha signal (raw counts)” value (His-tagged BCL-xL; BCL-xL Rep-1, plate row K, 1.90735e-5 uM) was 1178982 and 1221697 and the “Alpha signal (raw counts)” value (His-tagged BCL-xL; BCL-xL Rep-2, 7.62939e-5 uM) was 1287481 and 1327839. For the same compound, the “Alpha signal (raw counts)” value (His-tagged BCL-xL; BCL-xL Rep-2, plate row B, 5 uM) was 27681 and 27423, the “Alpha signal (raw counts)” value (His-tagged BCL-xL; BCL-xL Rep-2, plate row C, 1.25 uM) was 19946 and 33165 and the “Alpha signal (raw counts)” value (His-tagged BCL-xL; BCL-xL Rep-2, plate row D, 0.3125 uM) was 104103 and 115603. The “Alpha signal (raw counts)” value (His-tagged BCL-xL; BCL-xL Rep-2, plate row E, 0.078125 uM) was 336015 and 412856, the “Alpha signal (raw counts)” value (His-tagged BCL-xL; BCL-xL Rep-2, plate row F, 0.0195312 uM) was 814066 and 879407 and the “Alpha signal (raw counts)” value (His-tagged BCL-xL; BCL-xL Rep-2, plate row G, 0.00488281 uM) was 1170961 and 1327234. For the same compound, the “Alpha signal (raw counts)” value (His-tagged BCL-xL; BCL-xL Rep-2, plate row H, 0.0012207 uM) was 1347085 and 1401728, the “Alpha signal (raw counts)” value (His-tagged BCL-xL; BCL-xL Rep-2, plate row I, 0.000305176 uM) was 1445114 and 1473085 and the “Alpha signal (raw counts)” value (His-tagged BCL-xL; BCL-xL Rep-2, plate row K, 1.90735e-5 uM) was 1348563 and 1319629. For the same compound, the Ki (His-tagged BCL-xL; BCL-xL, mean of the two replicate values (line without label)) was 1.31 nM, the Ki (His-tagged BCL-xL; BCL-xL, second value (line without label below Rep-1, apparently Rep-2)) was 1.48 nM and the “binary binding affinity to BCL-2 (in words)” value (His-tagged BCL-2; [6]) was “much weaker than that of the warhead ABT263”. For the same compound, the “Alpha signal (raw counts)” value (His-tagged BCL-2; BCL-2 Rep-2, 0.00488281 uM) was 394963 and 403008, the “Alpha signal (raw counts)” value (His-tagged BCL-2; BCL-2 Rep-2, plate row B, 5 uM) was 11331 and 13334 and the “Alpha signal (raw counts)” value (His-tagged BCL-2; BCL-2 Rep-2, plate row C, 1.25 uM) was 13467 and 22674. For the same compound, the “Alpha signal (raw counts)” value (His-tagged BCL-2; BCL-2 Rep-2, plate row D, 0.3125 uM) was 16676 and 24219, the “Alpha signal (raw counts)” value (His-tagged BCL-2; BCL-2 Rep-2, plate row E, 0.078125 uM) was 24600 and 21594 and the “Alpha signal (raw counts)” value (His-tagged BCL-2; BCL-2 Rep-2, plate row F, 0.0195312 uM) was 68045. For the same compound, the “Alpha signal (raw counts)” value (His-tagged BCL-2; BCL-2 Rep-2, plate row F, 0.0195312 uM, listed as 753B) was 74511, the “Alpha signal (raw counts)” value (His-tagged BCL-2; BCL-2 Rep-2, plate row H, 0.0012207 uM) was 630958 and 595808 and the “Alpha signal (raw counts)” value (His-tagged BCL-2; BCL-2 Rep-2, plate row I, 0.000305176 uM) was 751084 and 777257. For the same compound, the “Alpha signal (raw counts)” value (His-tagged BCL-2; BCL-2 Rep-2, plate row J, 7.62939e-5 uM) was 760517 and 786817, the “Alpha signal (raw counts)” value (His-tagged BCL-2; BCL-2 Rep-2, plate row K, 1.90735e-5 uM) was 880286 and 989418 and the “Luminescence (raw plate reading)” value (Kasumi-1 cells; 2um (plate column 11)) was 42731 and 33855 and 41105 and 35447. The “Luminescence (raw plate reading)” value (Kasumi-1 cells; 4um (plate column 12)) was 25069 and 21488 and 20344 and 20760.
